Measured values from BindingDB's records for patent US11021481 (Nimbus Saturn, 2021).

Biological target: Mitogen-activated protein kinase kinase kinase kinase 1 (Homo sapiens, UniProt Q92918)
Assay: Biochemical Enzyme Assay
Experimental: HPK1 biochemical enzyme assay: HPK1 enzyme inhibition was measured using a microfluidic mobility shift assay. […] Test compounds were titrated in ten point curves (top final assay concentration 3 μM), and preincubated with enzyme/substrate mix for 30 min prior to initiation of the reaction by addition of ATP (1 mM final concentration) and substrate (1 μM final concentration; Carna Biosciences) diluted in assay buffer supplemented by MgCl2 (final assay concentration of 5 mM). Following 60 min incubation at RT, the reaction was terminated by addition of 60 µl/well termination buffer (Carna Biosciences) and signal determination using aCaliper EZ Reader (Perkin Elmer, UK).

Mitogen-activated protein kinase kinase kinase kinase 1, sequence (Q92918 whole entry): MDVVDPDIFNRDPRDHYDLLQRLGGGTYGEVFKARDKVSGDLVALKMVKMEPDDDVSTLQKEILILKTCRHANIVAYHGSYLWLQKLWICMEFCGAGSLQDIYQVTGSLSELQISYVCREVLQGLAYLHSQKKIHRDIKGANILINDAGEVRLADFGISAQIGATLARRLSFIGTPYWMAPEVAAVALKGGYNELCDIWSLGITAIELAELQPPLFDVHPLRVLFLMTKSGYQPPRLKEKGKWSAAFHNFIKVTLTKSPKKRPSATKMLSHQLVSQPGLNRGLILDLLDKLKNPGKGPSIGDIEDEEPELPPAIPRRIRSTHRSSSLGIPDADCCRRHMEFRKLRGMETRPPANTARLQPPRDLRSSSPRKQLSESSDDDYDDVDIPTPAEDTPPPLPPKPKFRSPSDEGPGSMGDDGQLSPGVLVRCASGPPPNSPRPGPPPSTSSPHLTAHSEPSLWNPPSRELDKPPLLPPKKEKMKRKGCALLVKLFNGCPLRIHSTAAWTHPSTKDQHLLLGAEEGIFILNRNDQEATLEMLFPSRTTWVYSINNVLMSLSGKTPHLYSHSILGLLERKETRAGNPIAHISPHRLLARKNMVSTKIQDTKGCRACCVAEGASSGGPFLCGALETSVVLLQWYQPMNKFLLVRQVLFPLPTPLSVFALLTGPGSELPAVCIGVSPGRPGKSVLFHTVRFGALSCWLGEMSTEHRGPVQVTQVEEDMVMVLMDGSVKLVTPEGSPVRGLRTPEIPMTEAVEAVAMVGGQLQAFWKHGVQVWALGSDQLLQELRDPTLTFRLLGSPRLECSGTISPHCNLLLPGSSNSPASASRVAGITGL

| SMILES | IC50 |
| --- | --- |
| Cn1ccc2c1N=CNC2c1ccc(Nc2ccc(N3CCC(O)CC3)cn2)c2c1CNC2=O (stereo not given) [US11021481, Compound I-144] | < 100 nM |
| O=C1NCc2c(-c3cnc4ccccn34)ccc(Cc3ccn(C4CCOCC4)n3)c21 [US11021481, Compound I-382] | > 1000 nM |
| CNC1CN(c2cccc(Nc3cnc(-c4ccnc5c4ccn5C)c4c3C(=O)NC4)c2)C1 [US11021481, Compound I-449] | < 100 nM |
| Cc1ccn2c(-c3ncc(Nc4cccc(C5CC[C@@H]6CNC[C@H]56)n4)c4c3CNC4=O)cnc2c1F (stereo not given in full) [US11021481, Compound I-480] | in the range around 550 nM |
| Cc1ccn2c(-c3ncc(Nc4cccc(C5CCC6CNCC65)n4)c4c3CNC4=O)cnc2c1F (stereo not given) [US11021481, Compound I-481] | < 100 nM |
| Cc1ccnn2c(-c3ncc(Nc4ccc(C5CCOC5)c(CN(C)C)n4)c4c3CNC4=O)cnc12 (stereo not given) [US11021481, Compound I-539] | < 100 nM |
| Cn1ccc2c(-c3ncc(Nc4ccc(C5CCOC5)c(CN5CCCC5)n4)c4c3CNC4=O)cccc21 (stereo not given) [US11021481, Compound I-552] | < 100 nM |
| CN1CCN(c2nc(Nc3ccc(-c4cnc5cc(F)ccn45)c4c3C(=O)NC4)cnc2[C@H]2CCOC2)CC1 [US11021481, Compound I-801] | < 100 nM |
| CN(C)Cc1nc(Nc2cnc(-c3cccc4c3ccn4C)c3c2C(=O)NC3)ccc1O[C@@H]1CCOC1 [US11021481, Compound I-805] | < 100 nM |
| COCC1(O)CCN(c2ccc(Nc3ccc(-c4ccnc5c4ccn5C)c4c3C(=O)NC4)nc2CN(C)C)CC1 [US11021481, Compound I-851] | < 100 nM |

Other lines, results leading:

| IC50 | SMILES |
| --- | --- |
| < 100 nM | CC(C)(O)[C@@H]1CN(c2ccc(Nc3ccc(-c4cnc5c(C(F)F)cccn45)c4c3C(=O)NC4)nc2)CCO1 [US11021481, Compound I-475] |
| < 100 nM | C[C@@H]1CN(c2c(CN(C)C)cc(Nc3ccc(-c4cnc5cc(F)ccn45)c4c3C(=O)NC4)nc2CN(C)C)CCO1 [US11021481, Compound I-541] |
| < 100 nM | Cc1ccn2c(-c3ccc(Nc4ccc(C5CCOC5)c(CN(C)C)n4)c4c3CNC4=O)cnc2c1 (stereo not given) [US11021481, Compound I-561] |
| < 100 nM | CN1CC(O)(C2CCCN(c3ccc(Nc4ccc(C5=CNC6C=C(F)C=CN56)c5c4C(=O)NC5)nc3)C2)C1 (stereo not given) [US11021481, Compound I-599] |
| < 100 nM | CN1CCN(c2nc(Nc3ccc(-c4cnc5cc(F)ccn45)c4c3C(=O)NC4)cnc2[C@@H]2CCOC2)CC1 [US11021481, Compound I-802] |
